Entries after “also recorded” stand apart in the source; their conditions may differ.
Tests used:
Type in all cases: physicochemical
[1] = Approximate aqueous solubility of salts/co-crystals (visual, solvent addition method); settings: water
Description: (§1) A weighed sample was treated with aliquots of the test solvent at room temperature. The mixture was sonicated between additions to facilitate dissolution. Complete dissolution of the test material was determined by visual inspection. Solubility was estimated based on the total solvent used to provide complete dissolution. Some samples were then heated and observed visually for complete dissolution. The actual solubility may be greater than the value calculated because of the use of solvent aliquots that were too large or due to a slow rate of dissolution. […] If complete dissolution was achieved as a result of only one aliquot addition, the solubility is expressed as “greater than.”

[2] = Deliquescence of salts/co-crystals during exposure to 75% RH; settings: ambient temperature, 3 day exposure
Description: The salts identified from the salt/co-crystal screen of Compound I (see section 4 above) were assessed visually for deliquescence during exposure to 75% RH at ambient temperature (Table 5). […] The materials from these experiments were recovered and re-analyzed by XRPD to determine if changes in solid form occurred.

[3] = XRPD analysis of remaining solids from aqueous solubility assessments; settings: solids recovered from mother liquor of aqueous solubility assessment
Description: Compound I ethylenediamine A+B disproportionated, as peaks similar to those observed for Compound I free acid Material C were observed.

[4] = Solubility of Compound I sodium salt forms in solvents and binary solvent systems
Description: as §1

[5] = Dynamic vapor sorption/desorption (DVS)
Description: Moisture sorption/desorption data were collected on a VTI SGA-100 Vapor Sorption Analyzer. NaCl and PVP were used as calibration standards. Samples were not dried prior to analysis. Sorption and desorption data were collected over a range from 5% to 95% RH at 10% RH increments under a nitrogen purge. The equilibrium criterion used for analysis was less than 0.0100% weight change in 5 minutes with a maximum equilibration time of 3 hours. Data were not corrected for the initial moisture content of the samples.

[6] = Slurry experiments (form stability); settings: for relative stability of the form (in words): at the conditions evaluated
Description: Solutions were prepared by adding enough solids to a given solvent so that excess solids were present. The mixture was then agitated in a sealed vial at either ambient or an elevated temperature. After a given amount of time, the solids were isolated for analysis.
The formation and stability of solid forms of the sodium salt of Compound I was further evaluated via slurry experiments. The slurries were formed by combining Compound I sodium Pattern A and a solvent, and allowing the slurry to equilibrate at room temperature. If a free flowing slurry was not achieved, an additional amount of the respective solvent was added before the room temperature equilibration step. All slurries were isolated via centrifuge filtration after five days and twelve days of equilibration. The solids were analyzed by XRPD to check for pattern conversion (Table 13).

[7] = Stability at elevated temperatures (XRPD, HPLC); settings: for HPLC: after storage at 60 ° C. (time point not given)
Description: The stability of Compound I sodium Patterns A, C, and D and Form B, at about 60° C. was evaluated. These forms were weighed into vials covered with a Kimwipe tissue and stored in an oven at 60° C. and ambient pressure. After three days and ten days of exposure, the solids were analyzed by XRPD to check for form conversion. […].

[8] = Water activity interconversion slurries; settings: for water activity at which the form is stable / favored: competitive water activity slurries
Description: The resulting solid phase was characterized by XRPD (Table 16). The experiments establish the physically stable form at various aw.
Water activity is related to relative humidity in that RH %=aw×100. Therefore, it is possible to directly relate the stability of an anhydrous/hydrate system in slurry experiments to solid state stability. Slurry technique at controlled water activities provides an accurate method of rapidly predicting the physically stable form in anhydrous/hydrate systems. This method is particularly valuable when relatively slow kinetics of conversion in the solid state prevents reaching true equilibrium in a reasonable timeframe, since solvent-mediated transformation accelerates the conversion process.

[9] = Competitive slurry experiments
Description: Competitive slurry experiments were also conducted to evaluate form stability of the solid forms of the sodium salt of Compound I. Slurries were prepared by combining Compound I sodium Pattern A, Form B, Pattern C and Pattern D with a solvent, allowing the slurry to equilibrate with stirring at room temperature. The slurries were analyzed at three day and ten day time points, filtered, and analyzed by XRPD (Table 14).

[10] = Stability at elevated temperatures (XRPD, HPLC)
[11] = Physical stability on drying, ambient exposure or heating
[12] = Approximate aqueous solubility of salts/co-crystals (visual, solvent addition method); settings: water, thermodynamic from solid, free acid solids retained from filtered aqueous phase, portion rinsed with water, read-out: solubility observed

In the case of O=C(O)c1cc(-c2ccc(OC3CC3)c(Cl)c2)ncn1 [Compound I sodium Form B, 6-(3-chloro-4-cyclopropoxyphenyl)pyrimidine-4-carboxylic acid], the “aqueous solubility (in words)” value [1] is reported as “desirable aqueous solubility; also recorded: good aqueous solubility”, the solubility ([1]; estimated visually, solvent addition method) is reported as 4000 µg/mL and the “Result (XRPD after exposure)” value ([2]; listed as Sodium B) is reported as “Sodium B”. For the same molecule, the “Observation (deliquescence)” value ([2]; visual) was “no deliquescence”, the “Result (XRPD of remaining solids)” value [3] was “remained unchanged by XRPD” and the “Result (XRPD of remaining solids)” value ([3]; listed as Sodium B) was “Sodium B”. The solubility ([4]; Methanol, ambient) was 6 mg/mL loading, the solubility ([4]; Water, ambient) was 2 mg/mL loading and the solubility ([4]; organic solvent or mixture, thermodynamic from solid, Acetone, 55° C., read-out: Solubility) was under 2000 µg/mL. It also gave a solubility ([4]; organic solvent or mixture, thermodynamic from solid, Acetone, ambient, read-out: Solubility) of under 2000 µg/mL, a solubility ([4]; organic solvent or mixture, thermodynamic from solid, Acetone/water, 94:6 v/v, 55° C., read-out: Solubility) of under 2000 µg/mL and a solubility ([4]; organic solvent or mixture, thermodynamic from solid, Acetone/water, 94:6 v/v, ambient, read-out: Solubility) of under 2000 µg/mL. The solubility ([4]; organic solvent or mixture, thermodynamic from solid, Acetonitrile, 55° C., read-out: Solubility) was under 2000 µg/mL, the solubility ([4]; organic solvent or mixture, thermodynamic from solid, Acetonitrile, ambient, read-out: Solubility) was under 2000 µg/mL and the solubility ([4]; organic solvent or mixture, thermodynamic from solid, Acetonitrile/water, 83:17 v/v, ambient, read-out: Solubility) was 2000 µg/mL. For the same molecule, the solubility ([4]; organic solvent or mixture, thermodynamic from solid, Ethanol, 55° C., read-out: Solubility) was under 2000 µg/mL, the solubility ([4]; organic solvent or mixture, thermodynamic from solid, Ethanol, ambient, read-out: Solubility) was under 2000 µg/mL and the solubility ([4]; organic solvent or mixture, thermodynamic from solid, Ethanol/water, 88:12 v/v, 55° C., read-out: Solubility) was about 2000 µg/mL. For the same molecule, the solubility ([4]; organic solvent or mixture, thermodynamic from solid, Ethanol/water, 88:12 v/v, ambient, read-out: Solubility) was about 2000 µg/mL, the solubility ([4]; organic solvent or mixture, thermodynamic from solid, Isopropanol, 55° C., read-out: Solubility) was under 2000 µg/mL and the solubility ([4]; organic solvent or mixture, thermodynamic from solid, Isopropanol, ambient, read-out: Solubility) was under 2000 µg/mL. For the same molecule, the solubility ([4]; organic solvent or mixture, thermodynamic from solid, Isopropanol/water, 91:9 v/v, 55° C., read-out: Solubility) was under 2000 µg/mL, the solubility ([4]; organic solvent or mixture, thermodynamic from solid, Isopropanol/water, 91:9 v/v, ambient, read-out: Solubility) was under 2000 µg/mL and the solubility ([4]; thermodynamic from solid, Water, ambient, read-out: Solubility) was at least 6000 µg/mL. For the same molecule, the “hygroscopicity by DVS analysis (in words)” value [5] was “hygroscopic”, the “DVS weight loss upon equilibration at about 5% RH” value ([5]; about 5% RH) was “about 0.03%” and the “material recovered from the DVS analysis compared with starting material by XRPD” value ([5]; after DVS) was “substantially the same as the starting material”. For the same molecule, the DVS weight gain ([5]; from about 5 to about 95% RH) was about 5.39%, the DVS weight loss ([5]; from about 95% to about 5% RH) was about 5.14% and the “gain observed by DVS analysis” value ([5]; sorption cycle) was about 5 wt %. The “stability in slurry (in words)” value ([6]; IPA and acetone) was “stable for about at least seven days”, the “relative stability of the form (in words)” value [6] was “predominant and most thermodynamically stable form; also recorded: most thermodynamically stable anhydrate form” and the “chemical and physical form changes after storing at elevated temperatures” value ([7]; about 60° C. and about 78° C.) was “No chemical and physical form changes were observed”. For the same molecule, the HPLC [7] was over 99.9 % AUC, the “Results (XRPD form)” value ([8]; 0.33 aw, 16:84 H2O/DMF, 6 days) was “Form B” and the “Results (XRPD form)” value ([8]; 0.39 aw, 15:85 H2O/MeOH, 6 days) was “Form B”. For the same molecule, the “Results (XRPD form)” value ([8]; 0.50 aw, 30:70 H2O/DMF, 6 days) was “Form B”, the “Results (XRPD form)” value ([8]; 0.58 aw, 6:94 H2O/Acetone, 6 days) was “Form B” and the “Results (XRPD form)” value ([8]; 0.70 aw, 50:50 H2O/DMF, 6 days) was “Form B”. For the same molecule, the “Results (XRPD form)” value ([8]; 0.86 aw, 70:30 H2O/MeOH, 6 days) was “Form B”, the “Results (XRPD form)” value ([8]; 0.91 aw, 50:50 H2O/Acetone, 1 day) was “Form E” and the “Results (XRPD form)” value ([8]; 0.98 aw, 90:10 H2O/Acetone, 6 days) was “Form E”. The “water activity at which the form is stable / favored” value [8] was at most 0.86 aw.

For O=C(O)c1cc(-c2ccc(OC3CC3)c(Cl)c2)ncn1 [Compound I sodium Form E, 6-(3-chloro-4-cyclopropoxyphenyl)pyrimidine-4-carboxylic acid], the “form conversion in competitive slurry” value ([9]; acetone and water) was “converted to Compound I sodium Form B”, the “water activity at which the form is stable / favored” value [8] was at least 0.91 aw and the “Results (XRPD form)” value ([10]; 65° C., after 20 min and after 50 min) was “Form B”. For the same molecule, the “Results (XRPD form)” value ([10]; 78° C., 18 days) was “Form B”, the “Results (XRPD form)” value ([10]; 205° C., briefly) was “Form B + peaks” and the “Results (XRPD form)” value ([10]; under N2: heat to 175° C. then cooled to 150° C., held for 10 minutes) was “Form B + peaks”.

With O=C(O)c1cc(-c2ccc(OC3CC3)c(Cl)c2)ncn1 [Compound I sodium Pattern D, 6-(3-chloro-4-cyclopropoxyphenyl)pyrimidine-4-carboxylic acid] the “form conversion in slurry / trituration” value ([6]; acetone and/or isopropanol (trituration, single form or competitive slurry)) was “converted to Compound I sodium Form B”, the “relative stability of the form (in words)” value [6] was “not stable” and the “form conversion in competitive slurry” value ([9]; water) was “Compound I sodium Form B”. For the same molecule, the “chemical and physical form changes after storing at elevated temperature” value ([7]; about 60° C.) was “No chemical and physical form changes were observed” and the HPLC [7] was over 99.9 % AUC.

With O=C(O)c1cc(-c2ccc(OC3CC3)c(Cl)c2)ncn1 [Compound I sodium Pattern F, 6-(3-chloro-4-cyclopropoxyphenyl)pyrimidine-4-carboxylic acid] the “effect of exposure to ambient” value ([11]; ambient for about 1 day) was “become disordered”.

In the case of O=C(O)c1cc(-c2ccc(OC3CC3)c(Cl)c2)ncn1 [Compound I sodium amorphous, 6-(3-chloro-4-cyclopropoxyphenyl)pyrimidine-4-carboxylic acid], the “form conversion on heating” value ([11]; heated to about 150° C.) is reported as “converts to Compound I sodium Form B”.

For O=C(O)c1cc(-c2ccc(OC3CC3)c(Cl)c2)ncn1 [Compound I, 6-(3-chloro-4-cyclopropoxyphenyl)pyrimidine-4-carboxylic acid], the solubility [12] was under 4000 µg/mL.

From patent US11173156B2, “Solid forms of a kynurenine-3-monooxygenase inhibitor” (CHDI Foundation, Inc., priority 2019, dated 2021)
